The values that follow come from patent US8802678B2, “Carbonylated (aza) cyclohexanes as dopamine D3 receptor ligands” (Bioprojet, priority 2006, dated 2014).

One may read the melting point as the temperature, or range, at which the solid turns liquid.

The compound `CC(=O)CN1CCC(CCN2CCN(c3cc(Cl)ccc3F)CC2)CC1.Cl.Cl` came in with a melting point of 270 °C.

In turn, `N#CCCCC(=O)N[C@H]1CC[C@H](CCN2CCN(c3ccc(Cl)cc3F)CC2)CC1` [Example 471, N-(4-{2-[4-(4-Chloro-2-fluorophenyl)piperazin-1-yl]ethyl}cyclohexyl)-4-cyanobutanamide] registered a melting point of 171 °C.

Consider `Cl.N#CCC(=O)N1CCC(CCN2CCN(c3cccc(Cl)c3Cl)CC2)CC1`, for which the melting point came to 228 °C.

`Cc1cc(N2CCN(CC[C@H]3CC[C@H](NC(=O)CC#N)CC3)CC2)c(Cl)cc1F` [Example 389, N-(4-{2-[4-(2-Chloro-4-fluoro-5-methylphenyl)piperazin-1-yl]ethyl}cyclohexyl)-2-cyanoacetamide] yielded a melting point of 177 °C.

`CCOCC(=O)N[C@H]1CC[C@H](CCN2CCN(c3cccc4c3CCCC4)CC2)CC1` [Example 117, 2-Ethoxy-N-(4-{2-[4-(5,6,7,8-tetrahydronaphthalen-1-yl)piperazin-1-yl]ethyl}-cyclohexyl)acetamide]: the melting point is 91 °C.

With `O=C(N[C@H]1CC[C@H](CCN2CCN(c3cccc(F)c3)CC2)CC1)C1=Cc2ccccc2C1` [Example 407, 1H-Indene-2-carboxylic acid (4-{2-[4-(3-fluorophenyl)piperazin-1-yl]ethyl}cyclohexyl) amide], the melting point was found to be 242 °C.

For `Cc1ccc(C(F)(F)F)cc1N1CCN(CC[C@H]2CC[C@H](NC(=O)CC#N)CC2)CC1` [Example 383, 2-Cyano-N-(4-{2-[4-(2-methyl-5-trifluoromethylphenyl)piperazin-1-yl]ethyl}cyclohexyl)acetamide], the melting point stood at 192 °C.

As to `N#CCCCC(=O)N[C@H]1CC[C@H](CCN2CCN(c3cccc(C#N)c3)CC2)CC1` [Example 448, 4-Cyano-N-(4-{2-[4-(3-cyanophenyl)piperazin-1-yl]ethyl}cyclohexyl)butanamide], the melting point was determined as 184 °C.

For the compound `N#CCCCC(=O)N[C@H]1CC[C@H](CCN2CCN(c3cc(Cl)cc(Cl)c3)CC2)CC1` [Example 261, 4-Cyano-N-(4-{2-[4-(3,5-dichlorophenyl)piperazin-1-yl]ethyl}cyclohexyl)butanamide trans/cis 98/2], the melting point was found to be 179 °C.

`CCc1ccccc1C1=CCN(CC[C@H]2CC[C@H](NC(=O)CCCC#N)CC2)CC1`: the melting point worked out at 120 °C.

In turn, `Cl.N#CCC(=O)N1CCC(CCN2CCN(c3cccc4c3CCC4)CC2)CC1` had a melting point of 210 °C.

For `NC(=O)CCC(=O)N[C@H]1CC[C@H](CCN2CCN(c3cccc(C(F)(F)F)c3F)CC2)CC1` [Example 459, N-(4-{2-[4-(2-Fluoro-3-trifluoro-methylphenyl)piperazin-1-yl]ethyl}cyclohexyl)succinamide], the melting point is 244 °C.

Consider `COCCCC(=O)N[C@H]1CC[C@H](CCN2CCN(c3cccc(C#N)c3)CC2)CC1` [Example 513, N-(4-{2-[4-(3-Cyanophenyl)-piperazin-1-yl]ethyl}cyclohexyl)-4-methoxybutanamide], for which the melting point was found to be 168 °C.

On to `CCC(O)c1cccc(N2CCN(CC[C@H]3CC[C@H](NC(=O)CC#N)CC3)CC2)c1` (stereo partly shown) [Example 566, 2-cyano-N-[4-(2-{4-[3-(1-hydroxypropyl)phenyl]piperazin-1-yl}ethyl)cyclohexyl]acetamide], for which the melting point was determined as 157 °C.

`CCc1cccc(N2CCN(CC[C@H]3CC[C@H](NC(=O)CCCOC)CC3)CC2)c1` [Example 560, N-(4-{2-[4-(3-Ethylphenyl)piperazin-1-yl]ethyl}cyclohexyl)-4-methoxybutanamide]: the melting point worked out at 130 °C.

`CC(C)(C)OC(=O)N1CCC(CCN2CCN(c3cccc(C(F)(F)F)c3)CC2)CC1.Cl` came in with a melting point of 188 °C.

As for `CCc1ccccc1C1=CCN(CCC2CCN(CC(C)=O)CC2)CC1.Cl.Cl`, the melting point is 316 °C.

`N#CCCCC(=O)N[C@H]1CC[C@H](CCN2CCN(c3ccc(F)c(Cl)c3F)CC2)CC1` [Example 552, N-(4-{2-[4-(3-Chloro-2,4-difluorophenyl)piperazin-1-yl]ethyl}cyclohexyl)-4-cyanobutanamide] came in with a melting point of 192 °C.

`N#CCC(=O)N[C@H]1CC[C@H](CCN2CCN(c3ccc(Cl)c(Cl)c3Cl)CC2)CC1` [Example 729, 2-Cyano-N-(4-{2-[4-(2,3,4-trichlorophenyl)piperazin-1-yl]ethyl}cyclohexyl)acetamide]: the melting point was 217 °C.

For the compound `O=C(N[C@H]1CC[C@H](CCN2CCN(c3cccc(C(F)(F)F)c3)CC2)CC1)C1CC=CC1` [Example 52, Cyclopent-3-enecarboxylic acid (4-{2-[4-(3-trifluoromethylphenyl)-piperazin-1-yl]ethyl}cyclohexyl)-amide], the melting point is 183 °C.

Regarding `COc1ccc(C)c(N2CCN(CCC3CCN(CC(C)=O)CC3)CC2)c1.Cl.Cl`, the melting point is 283 °C.

`CC(=O)CN1CCC(CCN2CCN(c3ccccc3C#N)CC2)CC1.Cl.Cl` came in with a melting point of 290 °C.

With `CC(=O)CN1CCC(CCN2CCN(c3cc(F)ccc3F)CC2)CC1` [Example 663, 1-(4-{2-[4-(2,5-Difluorophenyl)piperazin-1-yl]ethyl}piperidin-1-yl)propan-2-one], the melting point was 90 °C.

Regarding `N#CCC(=O)N[C@H]1CC[C@H](CCN2CCN(c3ccc(C(F)(F)F)cc3F)CC2)CC1` [Example 645, 2-Cyano-N-(4-{2-[4-(2-fluoro-4-trifluoromethylphenyl)piperazin-1-yl]ethyl}cyclohexyl) acetamide], the melting point amounted to 212 °C.

Compound `CCOCC(=O)N[C@H]1CC[C@H](CCN2CCN(c3cc(F)c(F)c(F)c3)CC2)CC1` [Example 465, 2-Ethoxy-N-(4-{2-[4-(3,4,5-trifluorophenyl)piperazin-1-yl]ethyl}cyclohexyl)acetamide] showed a melting point of 133 °C.

As to `Cl.Cl.O=C(N[C@H]1CC[C@H](CCN2CCN(c3cc(C(F)(F)F)ccc3F)CC2)CC1)[C@@H]1CCCN1` (stereo in doubt), the melting point is 274 °C.

With `CS(=O)(=O)Nc1cccc(N2CCN(CC[C@H]3CC[C@H](NC(=O)CC#N)CC3)CC2)c1` [Example 240, 2-Cyano-N-(4-{2-[4-(3-methanesulfonylaminophenyl)piperazin-1-yl]ethyl}cyclohexyl)-acetamide], the melting point came to 194 °C.

In turn, `N#CCC(=O)N[C@H]1CC[C@H](CCN2CCN(c3ccc(C(F)(F)F)cc3)CC2)CC1` [Example 274, 2-Cyano-N-(4-{2-[4-(4-trifluoromethylphenyl)piperazin-1-yl]ethyl}cyclohexyl)acetamide] displayed a melting point of 240 °C.

Take `Cl.NC(=O)CCC(=O)N1CCC(CCN2CCN(c3cccc4c3CCC4)CC2)CC1`: the melting point was 137 °C.

Compound `N#CCC(=O)N[C@H]1CC[C@H](CCN2CCN(c3cc(Cl)c(Cl)cc3Cl)CC2)CC1` [Example 717, 2-Cyano-N-(4-{2-[4-(2,4,5-trichlorophenyl)piperazin-1-yl]ethyl}cyclohexyl)acetamide] yielded a melting point of 200 °C.

As for `COCCCC(=O)N[C@H]1CC[C@H](CCN2CCN(c3cc(C(F)(F)F)ccc3F)CC2)CC1` [Example 616, N-(4-{2-[4-(2-Fluoro-5-trifluoromethylphenyl)piperazin-1-yl]ethyl}cyclohexyl)-4-methoxybutanamide], the melting point was 177 °C.
